Data taken from patent publication US9604983B2, “Herbicidal 3-(2-benzyloxyphenyl)-2,4-dihydroxy-1,8-naphthyridine derivatives” (SYNGENTA LIMITED, priority 2013, dated 2017).

Key:
Assay in all cases: Post-emergence efficacy, glasshouse pot test
Assay type in all cases: in vivo
Conditions in all cases: post-emergence application at 1000 g/ha; evaluated after 13 days; five point scale
[1] = tested on: Ipomoea hederacea (IPOHE)
Method: (§1) B1 Post-emergence Efficacy Seeds of a variety of test species are sown in standard soil in pots:—Solanum nigrum (SOLNI), Amaranthus retoflexus (AMARE), Setaria faberi (SETFA), Alopecurus myosuroides (ALOMY), Echinochloa crus-galli (ECHCG), Ipomoea hederacea (IPOHE). After 8 days cultivation (post-emergence) under controlled conditions in a glasshouse (at 24/16° C., day/night; 14 hours light; 65% humidity), the plants are sprayed with an aqueous spray solution derived from the formulation of the technical active ingredient in acetone/water (50:50) solution containing 0.5% Tween 20 (polyoxyethelyene sorbitan monolaurate, CAS RN 9005-64-5). Compounds are applied at 1000 g/ha. The test plants are then grown in a glasshouse under controlled conditions in a glasshouse (at 24/16° C., day/night; 14 hours light; 65% humidity) and watered twice daily. After 13 days, the test is evaluated for the percentage damage caused to the plant. The biological activities are shown below in Table 13, on a five point scale (5=80-100%; 4=60-79%; 3=40-59%; 2=20-39%; 1=0-19%).

[2] = tested on: Solanum nigrum (SOLNI)
Method: as §1

[3] = tested on: Alopecurus myosuroides (ALOMY)
Method: as §1

[4] = tested on: Setaria faberi (SETFA)
Method: as §1

[5] = tested on: Amaranthus retoflexus (AMARE)
Method: as §1

[6] = tested on: Echinochloa crus-galli (ECHCG)
Method: as §1

## C#CCn1c(=O)c(-c2c(Cl)ccc(Cl)c2OCc2ccccc2)c(OC(=O)C(C)C)c2c(OC)ccnc21 [Compound 1.007]
[1]
  percentage damage caused to the plant, IPOHE: 1 (1=0-19%)
[2]
  percentage damage caused to the plant, SOLNI: 4 (4=60-79%)
[3]
  percentage damage caused to the plant, ALOMY: 1 (1=0-19%)
[4]
  percentage damage caused to the plant, SETFA: 1 (1=0-19%)
[5]
  percentage damage caused to the plant, AMARE: 4 (4=60-79%)
[6]
  percentage damage caused to the plant, ECHCG: 1 (1=0-19%)
